Measurements: patent publication US9993494B2, “Compositions and methods for treating fibrotic disease” (eFFECTOR Therapeutics, Inc., priority 2014, dated 2018)

System: normal human lung fibroblasts
Assay: Ribosomal profiling: translational efficiency in TGFβ-treated fibroblasts
Format: cell-based
Details: TGFβ-treated fibroblasts
Method: Ribosomal profiling allows for measurement of changes in transcription and translation on a genome-wide basis accompanying TGFβ-dependent transformation of fibroblasts to myofibroblasts. Ribosomal profiles of the TGFβ-treated fibroblasts from Example 1 (about 6×10^6 cells/10 cm plate) were prepared and analyzed for changes in translational efficiencies with respect to potential disease-associated cellular changes accompanying this TGFβ-induced transformation.
Briefly, cells were washed with cold PBS supplemented with cycloheximide and lysed with 1× mammalian cell lysis buffer for 10 minutes on ice. Lysates were clarified by centrifugation for 10 minutes at 14,000 rpm and supernatants were collected. Cell lysates were processed to generate ribosomal protected fragments and total mRNA according to the instructions included with the ARTseq Ribosome Profiling Kit (Illumina, San Diego, Calif.). Sequencing of total RNA (RNA) and of ribosome-protected fragments of RNA (RPF) was carried out using RNA-Seq methodology according to the manufacturer's instructions (Illumina). To analyze the ribosomal profiles, RNA-Seq reads were processed with tools from the FASTX-Toolkit (fastq_quality_trimmer, fastx_clipper and fastx_trimmer). Unprocessed and processed reads were evaluated for a variety of quality measures using FastQC, and processed reads were mapped to the human genome using TopHat (see, e.g., Trapnell et al., Bioinformatics 25:1105, 2009). Gene-by-gene assessment of the number of fragments strictly and uniquely mapping to the coding region of each gene was conducted using HTSeq-count, a component of the HTSeq package. […] Genes with low counts in either RPF or RNA were excluded from differential analyses. Pathway and network analyses of differential data were conducted using Ingenuity Pathway Analysis (IPA).

COC(=O)[C@H]1[C@@H](O)[C@@]2(O)c3c(OC)cc(O[C@@H]4O[C@@H]([C@H](O)CO)CO[C@H]4OC)cc3O[C@@]2(c2ccc(OC)cc2)[C@@H]1c1ccccc1 [Silvestrol]
effect in renormalizing the translational profile of the gene (gene RPS6KA5 (ENSG00000100784)): + (+ = 0.9 to 1.5)
effect in renormalizing the translational profile of the gene (gene RPS7 (ENSG00000171863)): − (− = <0.9)
effect in renormalizing the translational profile of the gene (gene RPS8 (ENSG00000142937)): − (− = <0.9)
effect in renormalizing the translational profile of the gene (gene RPS9 (ENSG00000170889)): − (− = <0.9)
effect in renormalizing the translational profile of the gene (gene RPS10 (ENSG00000124614)): − (− = <0.9)
effect in renormalizing the translational profile of the gene (gene RPS11 (ENSG00000142534)): − (− = <0.9)
effect in renormalizing the translational profile of the gene (gene RPS12 (ENSG00000112306)): − (− = <0.9)
effect in renormalizing the translational profile of the gene (gene RPS13 (ENSG00000110700)): − (− = <0.9)
effect in renormalizing the translational profile of the gene (gene RPS14 (ENSG00000164587)): − (− = <0.9)
effect in renormalizing the translational profile of the gene (gene RPS15 (ENSG00000115268)): − (− = <0.9)
effect in renormalizing the translational profile of the gene (gene RPS15A (ENSG00000134419)): − (− = <0.9)
effect in renormalizing the translational profile of the gene (gene RPS16 (ENSG00000105193)): − (− = <0.9)
effect in renormalizing the translational profile of the gene (gene RPS18 (ENSG00000231500)): − (− = <0.9)
effect in renormalizing the translational profile of the gene (gene RPS19 (ENSG00000105372)): − (− = <0.9)
effect in renormalizing the translational profile of the gene (gene RPS20 (ENSG00000008988)): − (− = <0.9)
effect in renormalizing the translational profile of the gene (gene RPS21 (ENSG00000171858)): − (− = <0.9)
effect in renormalizing the translational profile of the gene (gene RPS23 (ENSG00000186468)): − (− = <0.9)
effect in renormalizing the translational profile of the gene (gene RPS24 (ENSG00000138326)): − (− = <0.9)
effect in renormalizing the translational profile of the gene (gene RPS25 (ENSG00000118181)): − (− = <0.9)
effect in renormalizing the translational profile of the gene (gene RPS26 (ENSG00000197728)): − (− = <0.9)
effect in renormalizing the translational profile of the gene (gene RPS27 (ENSG00000177954)): − (− = <0.9)
effect in renormalizing the translational profile of the gene (gene RPS27A (ENSG00000143947)): − (− = <0.9)
effect in renormalizing the translational profile of the gene (gene RPS28 (ENSG00000233927)): − (− = <0.9)
effect in renormalizing the translational profile of the gene (gene RPS29 (ENSG00000213741)): − (− = <0.9)
effect in renormalizing the translational profile of the gene (gene RPSA (ENSG00000168028)): − (− = <0.9)
effect in renormalizing the translational profile of the gene (gene RTN2 (ENSG00000125744)): − (− = <0.9)
effect in renormalizing the translational profile of the gene (gene SEMA3A (ENSG00000075213)): − (− = <0.9)
effect in renormalizing the translational profile of the gene (gene SGIP1 (ENSG00000118473)): + (+ = 0.9 to 1.5)
effect in renormalizing the translational profile of the gene (gene SHC3 (ENSG00000148082)): − (− = <0.9)
effect in renormalizing the translational profile of the gene (gene SLC2A12 (ENSG00000146411)): ++ (++ = 1.5 to 2.0)
effect in renormalizing the translational profile of the gene (gene SLC7A7 (ENSG00000155465)): − (− = <0.9)
effect in renormalizing the translational profile of the gene (gene SLC15A3 (ENSG00000110446)): − (− = <0.9)
effect in renormalizing the translational profile of the gene (gene SLC25A6 (ENSG00000169100)): − (− = <0.9)
effect in renormalizing the translational profile of the gene (gene SLC40A1 (ENSG00000138449)): − (− = <0.9)
effect in renormalizing the translational profile of the gene (gene SMO (ENSG00000128602)): − (− = <0.9)
effect in renormalizing the translational profile of the gene (gene SNRPA (ENSG00000077312)): + (+ = 0.9 to 1.5)
effect in renormalizing the translational profile of the gene (gene SOX5 (ENSG00000134532)): − (− = <0.9)
effect in renormalizing the translational profile of the gene (gene SOX6 (ENSG00000110693)): − (− = <0.9)
effect in renormalizing the translational profile of the gene (gene SPATA6 (ENSG00000132122)): − (− = <0.9)
effect in renormalizing the translational profile of the gene (gene STAMBPL1 (ENSG00000138134)): + (+ = 0.9 to 1.5)
effect in renormalizing the translational profile of the gene (gene STS (ENSG00000101846)): − (− = <0.9)
effect in renormalizing the translational profile of the gene (gene SYNE2 (ENSG00000054654)): − (− = <0.9)
effect in renormalizing the translational profile of the gene (gene TAF1D (ENSG00000166012)): − (− = <0.9)
effect in renormalizing the translational profile of the gene (gene TDG (ENSG00000139372)): − (− = <0.9)
effect in renormalizing the translational profile of the gene (gene TEN1 (ENSG00000257949)): + (+ = 0.9 to 1.5)
effect in renormalizing the translational profile of the gene (gene TET2 (ENSG00000168769)): − (− = <0.9)
effect in renormalizing the translational profile of the gene (gene TET3 (ENSG00000187605)): − (− = <0.9)
effect in renormalizing the translational profile of the gene (gene TGFBI (ENSG00000120708)): − (− = <0.9)
effect in renormalizing the translational profile of the gene (gene THBS3 (ENSG00000169231)): + (+ = 0.9 to 1.5)
effect in renormalizing the translational profile of the gene (gene THG1L (ENSG00000113272)): − (− = <0.9)
effect in renormalizing the translational profile of the gene (gene TIMM9 (ENSG00000100575)): − (− = <0.9)
effect in renormalizing the translational profile of the gene (gene TKT (ENSG00000163931)): − (− = <0.9)
effect in renormalizing the translational profile of the gene (gene TMTC1 (ENSG00000133687)): +++ (+++ = >2.0)
effect in renormalizing the translational profile of the gene (gene TOMM7 (ENSG00000196683)): − (− = <0.9)
effect in renormalizing the translational profile of the gene (gene TOP2A (ENSG00000131747)): +++ (+++ = >2.0)
effect in renormalizing the translational profile of the gene (gene TPGS1 (ENSG00000141933)): − (− = <0.9)
effect in renormalizing the translational profile of the gene (gene TPM2 (ENSG00000198467)): − (− = <0.9)
effect in renormalizing the translational profile of the gene (gene TPT1 (ENSG00000133112)): − (− = <0.9)
effect in renormalizing the translational profile of the gene (gene TRERF1 (ENSG00000124496)): + (+ = 0.9 to 1.5)
effect in renormalizing the translational profile of the gene (gene UBA52 (ENSG00000221983)): − (− = <0.9)
effect in renormalizing the translational profile of the gene (gene UQCRB (ENSG00000156467)): − (− = <0.9)
effect in renormalizing the translational profile of the gene (gene UTRN (ENSG00000152818)): − (− = <0.9)
effect in renormalizing the translational profile of the gene (gene VIM (ENSG00000026025)): − (− = <0.9)
effect in renormalizing the translational profile of the gene (gene ZNF581 (ENSG00000171425)): − (− = <0.9)
effect in renormalizing the translational profile of the gene (gene ZNF608 (ENSG00000168916)): − (− = <0.9)
